Assay results taken from PubChem BioAssay AID2060511 (Molecular Pharmacology Branch, DTP, NCI, 2025).

Tested on: 422866-222-R5-J1-PDC spheroids with HUVEC/MSC, viability
Assay: Anticancer human tumor 422866-222-R5-J1-PDC patient-derived pancreatic adenocarcinoma cell line growth inhibition [GQUAD]
Settings: for IC50: curve of first compound; for viability, T/C: stronger effect = lower value; active = viability on the fitted dose curve at most 10% of control; inactive = the rest
Summary of the method: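 Multi-cell-type spheroids of tumor cells with HUVEC and mesenchymal stem cells, treated with drug combinations. Concentrations descend in half-log steps from near clinical Cmax, or from 10 microM where Cmax is unknown; viability read-out.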

[1] = second compound 0.0316 µM, first compound 0.0316 µM
[2] = second compound 0.0316 µM, first compound 0.1 µM
[3] = second compound 0.0316 µM, first compound 0.316 µM
[4] = second compound 0.0316 µM, first compound 1 µM
[5] = second compound 0.0316 µM, first compound 3.16 µM
[6] = second compound 0.0316 µM, first compound 10 µM
[7] = second compound 0.1 µM, first compound 0.0316 µM
[8] = second compound 0.1 µM, first compound 0.1 µM
[9] = second compound 0.1 µM, first compound 0.316 µM
[10] = second compound 0.1 µM, first compound 1 µM
[11] = second compound 0.1 µM, first compound 3.16 µM
[12] = second compound 0.1 µM, first compound 10 µM
[13] = second compound 0.316 µM, first compound 0.0316 µM
[14] = second compound 0.316 µM, first compound 0.1 µM
[15] = second compound 0.316 µM, first compound 0.316 µM
[16] = second compound 0.316 µM, first compound 1 µM
[17] = second compound 0.316 µM, first compound 3.16 µM
[18] = second compound 0.316 µM, first compound 10 µM
[19] = second compound 1 µM, first compound 0.0316 µM
[20] = second compound 1 µM, first compound 0.1 µM
[21] = second compound 1 µM, first compound 0.316 µM
[22] = second compound 1 µM, first compound 1 µM
[23] = second compound 1 µM, first compound 3.16 µM
[24] = second compound 1 µM, first compound 10 µM
[25] = second compound 3.16 µM, first compound 0.0316 µM
[26] = second compound 3.16 µM, first compound 0.1 µM
[27] = second compound 3.16 µM, first compound 0.316 µM
[28] = second compound 3.16 µM, first compound 1 µM
[29] = second compound 3.16 µM, first compound 3.16 µM
[30] = second compound 3.16 µM, first compound 10 µM
[31] = second compound 10 µM, first compound 0.0316 µM
[32] = second compound 10 µM, first compound 0.1 µM
[33] = second compound 10 µM, first compound 0.316 µM
[34] = second compound 10 µM, first compound 1 µM
[35] = second compound 10 µM, first compound 3.16 µM
[36] = second compound 10 µM, first compound 10 µM
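Also: spheroids exposed to compounds for seven days before reading.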
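For viability, T/C in this document: percent viability relative to DMSO vehicle control taken as 100%.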

CC1COCCN1c1cc(-c2ccnn2C)c2ccnc(-c3ccn[nH]3)c2n1 (stereo unspecified) + Cc1[nH]c2ccc(F)cc2c1-c1nc2c3cccnc3c3ncccc3c2[nH]1
inactive: viability, T/C [1] 84.4% | viability, T/C [2] 58.8% | viability, T/C [3] 46.1% | viability, T/C [4] 42% | viability, T/C [5] 52.8% | viability, T/C [6] 87.2% | viability, T/C [7] 83.3% | viability, T/C [8] 64.9% | viability, T/C [9] 41.6% | viability, T/C [10] 33.7% | viability, T/C [11] 50% | viability, T/C [12] 93.7% | viability, T/C [13] 101% | viability, T/C [14] 58.1% | viability, T/C [15] 45.3% | viability, T/C [16] 36.8% | viability, T/C [17] 66% | viability, T/C [18] 75% | viability, T/C [19] 80.9% | viability, T/C [20] 51.9% | viability, T/C [21] 41.1% | viability, T/C [22] 37.5% | viability, T/C [23] 75.3% | viability, T/C [24] 86.6% | viability, T/C [25] 60.6% | viability, T/C [26] 55.9% | viability, T/C [27] 41.5% | viability, T/C [28] 42.6% | viability, T/C [29] 73.2% | viability, T/C [30] 91.5% | viability, T/C [31] 62.8% | viability, T/C [32] 57.8% | viability, T/C [33] 43.1% | viability, T/C [34] 47.1% | viability, T/C [35] 82.8% | viability, T/C [36] 84.2%
0.0316 µM: IC50 (second compound 1 µM) | IC50 (second compound 3.16 µM) | IC50 (second compound 10 µM)
> 10 µM: IC50 (second compound 0.0316 µM) | IC50 (second compound 0.1 µM) | IC50 (second compound 0.316 µM)

CC1COCCN1c1cc(C2(S(C)(=N)=O)CC2)nc(-c2ccnc3[nH]ccc23)n1 (stereo unspecified) + Cc1[nH]c2ccc(F)cc2c1-c1nc2c3cccnc3c3ncccc3c2[nH]1
> 10 µM: IC50 (second compound 10 µM)
3.47 µM: IC50 (second compound 1 µM)
2.28 µM: IC50 (second compound 3.16 µM)
5.49 µM: IC50 (second compound 0.316 µM)
2.35 µM: IC50 (second compound 0.1 µM)
inactive: viability, T/C [1] 99.6% | viability, T/C [2] 84.9% | viability, T/C [3] 90.2% | viability, T/C [4] 62.4% | viability, T/C [5] 52% | viability, T/C [6] 41.5% | viability, T/C [7] 78.9% | viability, T/C [8] 83.8% | viability, T/C [9] 92.3% | viability, T/C [10] 62.2% | viability, T/C [11] 48.9% | viability, T/C [12] 42.5% | viability, T/C [13] 106% | viability, T/C [14] 84.9% | viability, T/C [15] 88.2% | viability, T/C [16] 72.6% | viability, T/C [17] 56.2% | viability, T/C [18] 41.7% | viability, T/C [19] 70.3% | viability, T/C [20] 90.4% | viability, T/C [21] 78.8% | viability, T/C [22] 66.7% | viability, T/C [23] 51.4% | viability, T/C [24] 45.2% | viability, T/C [25] 69.4% | viability, T/C [26] 79.4% | viability, T/C [27] 67.5% | viability, T/C [28] 57.3% | viability, T/C [29] 48.4% | viability, T/C [30] 40.2% | viability, T/C [31] 81.6% | viability, T/C [32] 63.7% | viability, T/C [33] 65.6% | viability, T/C [34] 50.4% | viability, T/C [35] 50.7% | viability, T/C [36] 54.3%
3.01 µM: IC50 (second compound 0.0316 µM)

COc1ccc([C@@H](O)c2cc(-c3ncnc4cc(N5CCOCC5)ccc34)c(F)cc2Cl)nn1 + Cc1[nH]c2ccc(F)cc2c1-c1nc2c3cccnc3c3ncccc3c2[nH]1
5.78 µM: IC50 (second compound 0.1 µM)
4.47 µM: IC50 (second compound 1 µM)
inactive: viability, T/C [1] 81.2% | viability, T/C [2] 79.2% | viability, T/C [3] 72.2% | viability, T/C [4] 68% | viability, T/C [5] 54.7% | viability, T/C [6] 35.8% | viability, T/C [7] 90.6% | viability, T/C [8] 78.8% | viability, T/C [9] 68.6% | viability, T/C [10] 60.2% | viability, T/C [11] 62.5% | viability, T/C [12] 42.1% | viability, T/C [13] 95.4% | viability, T/C [14] 82.4% | viability, T/C [15] 74.9% | viability, T/C [16] 60.6% | viability, T/C [17] 51.3% | viability, T/C [18] 38.8% | viability, T/C [19] 75.6% | viability, T/C [20] 81.8% | viability, T/C [21] 66.9% | viability, T/C [22] 62.8% | viability, T/C [23] 57.5% | viability, T/C [24] 38.5% | viability, T/C [25] 80.7% | viability, T/C [26] 73% | viability, T/C [27] 65.4% | viability, T/C [28] 64.8% | viability, T/C [29] 45.3% | viability, T/C [30] 34.6% | viability, T/C [31] 64.2% | viability, T/C [32] 69% | viability, T/C [33] 78.5% | viability, T/C [34] 57.1% | viability, T/C [35] 46.2% | viability, T/C [36] 33.9%
4.2 µM: IC50 (second compound 0.0316 µM)
2.13 µM: IC50 (second compound 10 µM)
3.27 µM: IC50 (second compound 0.316 µM)
2.63 µM: IC50 (second compound 3.16 µM)
